For the experiment, the target named is T1, Therminator DNA polymerase (Thermococcus sp., UniProt Q56366, A485L/D141A/E143A).
T1 sequence (Q56366 1-775 D141A/E143A/A485L): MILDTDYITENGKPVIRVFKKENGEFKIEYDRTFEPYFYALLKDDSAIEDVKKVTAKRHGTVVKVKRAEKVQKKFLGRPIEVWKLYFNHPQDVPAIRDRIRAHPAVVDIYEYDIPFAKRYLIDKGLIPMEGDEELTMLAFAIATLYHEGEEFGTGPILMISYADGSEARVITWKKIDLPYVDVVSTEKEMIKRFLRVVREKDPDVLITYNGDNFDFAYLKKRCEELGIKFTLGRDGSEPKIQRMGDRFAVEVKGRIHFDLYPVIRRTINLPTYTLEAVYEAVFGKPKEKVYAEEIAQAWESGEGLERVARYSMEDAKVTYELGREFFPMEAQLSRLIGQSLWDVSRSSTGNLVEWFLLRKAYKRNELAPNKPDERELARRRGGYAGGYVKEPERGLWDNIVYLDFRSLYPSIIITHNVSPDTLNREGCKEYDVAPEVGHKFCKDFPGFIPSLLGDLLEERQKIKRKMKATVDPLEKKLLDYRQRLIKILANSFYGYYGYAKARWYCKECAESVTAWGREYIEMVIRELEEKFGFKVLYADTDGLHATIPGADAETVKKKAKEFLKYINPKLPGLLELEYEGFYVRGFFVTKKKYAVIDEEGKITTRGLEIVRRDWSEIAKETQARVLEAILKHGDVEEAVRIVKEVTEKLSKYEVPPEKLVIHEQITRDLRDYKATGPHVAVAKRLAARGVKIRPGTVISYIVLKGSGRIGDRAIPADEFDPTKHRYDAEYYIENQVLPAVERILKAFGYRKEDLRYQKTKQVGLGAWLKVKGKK
Kind of experiment: PEP termination assay. It counts as biochemical, Thermococcus species 9ºN-7.

Each structure is given as a SMILES string.

Usually IC50 stands for the concentration at which inhibition is half-maximal. Higher therefore signals weaker potency in that assay. In turn, `O=[N+]([O-])c1ccccc1CNc1ncnc2c1ncn2[C@H]1C[C@H](O)[C@@H](COP(=O)(O)OP(=O)(O)OP(=O)(O)O)O1` [Compound IIIc, N^6-(2-Nitrobenzyl)-2’-deoxyadenosine-5’-triphosphate] registered a half-inhibitory concentration (IC50) of 1.8 nM.

The record behind these values is paper PMC2095803 (Nucleic Acids Research, 2007).
